Where only a bound is given, the exact number is not on record here.

The target of the test is T1, HPK1 (Homo sapiens, UniProt Q92918).
T1 construct: A HiBiT tag was introduced by CRISPR on the N terminus of HPK1 in Jurkat cells; host or cells: Jurkat cells (ATCC TIB-152), monoclonal line with CRISPR knock-in of HiBiT at the endogenous HPK1 locus
The experiment in a line: HPK1 Cellular HiBit Degradation Assay. Type of test: cell-based. Conditions: HiBiT HPK1 Jurkat cells, 24 hrs; for DC50: concentration at which 50% of HPK1 was remaining, read-out: DC50 Category; for Dmax: Jurkat, maximum degradation vs DMSO vehicle control, read-out: Dmax Category. The gist of the method: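 Jurkat cells with CRISPR knock-in N-terminal HiBiT-HPK1 were treated with CTMs (11-point, 3.16-fold, 10 uM to 0.1 nM final) for 24 hrs at 37° C. HiBiT lytic luminescence, with parental Jurkat as background and DMSO as 100%, gave % HPK1 remaining; four-parameter fit yielded DC50 and Dmax (100 minus lowest % remaining).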
In general terms: With HiBiT, luminescence reflects the tagged protein that the partner subunit can reach.

T1 sequence (Q92918 whole entry): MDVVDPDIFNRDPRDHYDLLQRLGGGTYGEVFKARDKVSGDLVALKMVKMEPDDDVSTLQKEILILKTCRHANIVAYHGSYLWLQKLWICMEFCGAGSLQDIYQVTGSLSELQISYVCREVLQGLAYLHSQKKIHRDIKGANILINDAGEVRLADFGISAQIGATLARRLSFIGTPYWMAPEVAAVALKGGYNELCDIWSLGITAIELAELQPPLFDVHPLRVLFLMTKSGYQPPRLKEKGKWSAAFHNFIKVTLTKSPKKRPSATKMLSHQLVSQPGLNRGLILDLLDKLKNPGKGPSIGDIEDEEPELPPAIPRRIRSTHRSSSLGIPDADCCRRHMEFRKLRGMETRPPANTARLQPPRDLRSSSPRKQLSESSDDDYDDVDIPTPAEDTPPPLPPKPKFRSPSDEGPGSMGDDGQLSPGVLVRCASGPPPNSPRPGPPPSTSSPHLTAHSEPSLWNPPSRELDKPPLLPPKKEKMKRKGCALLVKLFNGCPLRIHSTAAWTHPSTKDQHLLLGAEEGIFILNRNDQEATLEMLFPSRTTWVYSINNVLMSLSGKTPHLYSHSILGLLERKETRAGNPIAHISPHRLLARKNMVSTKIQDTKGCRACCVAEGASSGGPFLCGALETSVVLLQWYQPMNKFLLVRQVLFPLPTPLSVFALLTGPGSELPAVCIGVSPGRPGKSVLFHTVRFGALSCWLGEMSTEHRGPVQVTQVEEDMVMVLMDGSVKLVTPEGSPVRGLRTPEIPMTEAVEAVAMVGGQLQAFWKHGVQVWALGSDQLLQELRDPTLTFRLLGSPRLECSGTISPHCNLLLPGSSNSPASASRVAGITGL

Turning to `CC(C)n1cnc2cc(-c3ccc4c(c3)N([C@H]3C[C@@H](N5CCC[C@@H](F)C5)C3)C(=O)C43CCN(C(=O)C4(C)CCN(C(=O)C5CCN(c6ccc(C7CCC(=O)NC7=O)cc6)CC5)CC4)CC3)nc(NC3CC3)c21` (mixture of isomers) [Example 199, (3RS)-3-(4-{4-[4-({6-[4-(cyclopropylamino)-3-(propan-2-yl)-3H-imidazo[4,5-c]pyridin-6-yl]-2-oxo-1-[(1S,3S)-3-[(3R)-3-fluoropiperidin-1-yl]cyclobutyl]-1,2-dihydrospiro[indole-3,4′-piperidin]-1′-yl}carbonyl)-4-methylpiperidine-1-carbonyl]piperidin-1-yl}phenyl)piperidine-2,6-dione], the DC50 was in the range of 100 to 500 nM and the maximal degradation (Dmax) was 50 to 70%.

Regarding `CC(C)n1cnc2cc(-c3ccc4c(c3)N([C@H]3C[C@@H](N5CCCCC5)C3)C(=O)C43CCN(C(=O)[C@H]4[C@@H]5C[C@H]4CN(C(=O)C4CCN(c6ccc(C7CCC(=O)NC7=O)cn6)CC4)C5)CC3)nc(NC3CC3)c21` (stereo partly drawn) [Example 239, 3-(6-(4-((1R,5S,6S)-6-(6-(4-(cyclopropylamino)-3-isopropyl-3H-imidazo[4,5-c]pyridin-6-yl)-2-oxo-1-((1S,3S)-3-(piperidin-1-yl)cyclobutyl)spiro[indoline-3,4′-piperidine]-1′-carbonyl)-3-Azabicyclo[3.1.1]heptane-3-carbonyl)piperidin-1-yl)pyridin-3-yl)piperidine-2,6-dione], the DC50 was < 100 nM and the Dmax was 50 to 70%.

For `CC(C)n1cnc2cc(-c3ccc4c(c3)N([C@H]3C[C@@H](N5CCCCC5)C3)C(=O)C43CCN(C(=O)[C@@H]4CCCN(C(=O)CC5CCN(c6ccc(C7CCC(=O)NC7=O)cn6)CC5)C4)CC3)nc(NC3CC3)c21` (mixture of isomers) [Example 235, (3RS)-3-[6-(4-{2-[(3R)-3-({6-[4-(cyclopropylamino)-3-(propan-2-yl)-3H-imidazo[4,5-c]pyridin-6-yl]-2-oxo-1-[(1S,3S)-3-(piperidin-1-yl)cyclobutyl]-1,2-dihydrospiro[indole-3,4′-piperidin]-1′-yl}carbonyl)piperidin-1-yl]-2-oxoethyl}piperidin-1-yl)pyridin-3-yl]piperidine-2,6-dione], the DC50 was < 100 nM and the greatest degradation seen (Dmax) lay within 70 to 85%.

Take `CC(C)n1cnc2cc(-c3ccc4c(c3)N([C@H]3C[C@@H](N5CCCCC5)C3)C(=O)C43CCN(C(=O)[C@@H]4CCN(C(=O)[C@H]5CC[C@H](Oc6ccc(C7CCC(=O)NC7=O)cn6)CC5)C4)CC3)nc(Nc3ccncc3F)c21` (mixture of isomers) [Example 18, (3RS)-3-(6-{[(1R,4R)-4-[(3R)-3-[(6-{4-[(3-fluoropyridin-4-yl)amino]-3-(propan-2-yl)-3H-imidazo[4,5-c]pyridin-6-yl}-2-oxo-1-[(1S,3S)-3-(piperidin-1-yl)cyclobutyl]-1,2-dihydrospiro[indole-3,4′-piperidin]-1′-yl)carbonyl]pyrrolidine-1-carbonyl]cyclohexyl]oxy}pyridin-3-yl)piperidine-2,6-dione]: the DC50 lay in the range of 100 to 500 nM and the Dmax lay within 70 to 85%.

For `CC(C)n1cnc2cc(-c3ccc4c(c3)N([C@H]3C[C@@H](N5CCCCC5)C3)C(=O)C43CCN(C(=O)[C@H]4CC[C@H](C(=O)N5CCC(N(C)c6ccc(C7CCC(=O)NC7=O)cc6)CC5)CC4)CC3)nc(Nc3ccccc3F)c21` (mixture of isomers) [Example 135, (3RS)-3-{4-[methyl({1-[(1R,4R)-4-[(6-{4-[(2-fluorophenyl)amino]-3-(propan-2-yl)-3H-imidazo[4,5-c]pyridin-6-yl}-2-oxo-1-[(1S,3S)-3-(piperidin-1-yl)cyclobutyl]-1,2-dihydrospiro[indole-3,4′-piperidin]-1′-yl)carbonyl]cyclohexanecarbonyl]piperidin-4-yl})amino]phenyl}piperidine-2,6-dione], the DC50 is < 100 nM and the maximal degradation (Dmax) lay within 70 to 85%.

What is called DC50 is the midpoint of the concentration-degradation curve. One may read the Dmax as the greatest extent of degradation seen.

Source of the values: patent US12091426B2, “Bifunctional degraders of hematopoietic progenitor kinase and therapeutic uses thereof” (Nurix Therapeutics, Inc., priority 2021, dated 2024).
